Where two headings read alike, the source gives them in different places.
Key:
[1] = target: T1, GST-EGFR-KD^WT (Homo sapiens, UniProt P00533); assay: EGFR kinase assay (Kinase-Glo); type: biochemical; conditions: 5 μM ATP, read-out: IC50 (concentration at which activity of 50% of EGFR is inhibited)
T1 construct: 50 ng GST-EGFR-KD^WT proteins; made in house
Procedure: Following incubation, 50 μl Kinase-Glo Plus Reagent (Promega) was added and the mixture was further incubated at 25° C. for 20 min.

[2] = system: HCC827 cells; assay: HCC827 cell viability, MTS assay; type: cell-based; conditions: Homo sapiens, 96-h incubation, read-out: IC50 (concentration which causes 50% of the cell death)
Procedure: HCC827 cell viability was examined by the MTS assay (Promega, Madison, Wis., USA). 1000 HCC827 cells in 100 μl RPMI1640 with 10% FBS medium were seeded in each well of a 96-well plate. After 96-h incubation with a test compound, the cells were further incubated with 20 μl of a MTS/PMS mixture (MTS/PMS ratio: 20:1) in each well of the 96-well plate for 2 h at 37° C. in a humidified incubator with 5% CO2 to allow viable cells to convert the tetrazolium salt (MTS) into formazan. The amount/concentration of formazan, which indicates the number of live cells, was determined by measuring its absorbance at 490 nm using a PerkinElmer Victor2 plate reader (PerkinElmer, Shelton, Conn., USA).

T1 sequence (P00533 712-979 limits assumed): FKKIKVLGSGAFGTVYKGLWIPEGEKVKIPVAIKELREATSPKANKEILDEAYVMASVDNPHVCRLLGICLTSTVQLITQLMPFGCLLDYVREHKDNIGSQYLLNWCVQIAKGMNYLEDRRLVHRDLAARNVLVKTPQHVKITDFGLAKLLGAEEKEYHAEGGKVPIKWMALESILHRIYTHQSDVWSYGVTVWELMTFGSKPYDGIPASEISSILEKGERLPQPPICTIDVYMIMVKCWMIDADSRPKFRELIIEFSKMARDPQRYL

| Compound | IC50 ([1]; range given in mixed units) | IC50 [1] | IC50 [2] |
| --- | --- | --- | --- |
| C=CC(=O)Nc1ccc(-c2nc3c(N[C@H](CO)c4ccccc4)ncnc3o2)cc1 [Compound 154] | 101 to 900 nM |  |  |
| CCN(C/C=C/C(=O)N1CCc2c(sc3ncnc(N[C@H](C)c4ccccc4)c23)C1)CCO [Compound 216] |  | < 59 nM | 1 to 99 nM |
| CC[C@@H](Nc1ncnc2oc(-c3ccccc3)cc12)c1ccccc1 [Compound 56] |  |  | 301 to 999 nM |
| O=C(O)[C@@H](Nc1ncnc2sc(-c3ccccc3)cc12)c1ccccc1 [Compound 22] | 101 to 900 nM |  |  |
| Cc1sc2ncnc(N[C@H](CO)c3ccccc3)c2c1C [Compound 4, (S)-2-(5,6-dimethylthieno[2,3-d]pyrimidin-4-ylamino)-2-phenylethanol] |  |  | 301 to 999 nM |
| COCCN(C)C/C=C/C(=O)N1CCc2c(sc3ncnc(N[C@H](CO)c4ccccc4)c23)C1 [Compound 327] |  | < 59 nM |  |
| OC[C@@H](Nc1ncnc2sc(-c3ccccc3)cc12)c1ccccc1 [Compound 7] | 101 to 900 nM |  |  |
| O=C(O)/C=C\C(=O)N1CCc2c(sc3ncnc(N[C@H](CO)c4ccccc4)c23)C1 [Compound 61] | 101 to 900 nM |  |  |
| CCOC(=O)[C@@H](Nc1ncnc2oc(-c3ccccc3)c(-c3ccccc3)c12)c1ccccc1 [Compound 47] |  |  | 301 to 999 nM |
| C=CC(=O)N1CCc2c(sc3ncnc(N[C@H](CO[Si](C)(C)C(C)(C)C)c4ccccc4)c23)C1 [Compound 15] | 101 to 900 nM |  | 301 to 999 nM |
| C=CC(=O)Nc1ccc(-c2c(-c3ccccc3)oc3ncnc(N[C@H](C)c4ccccc4)c23)cc1 [Compound 238] | 101 to 900 nM |  | 1 to 99 nM |
| O=C(O)[C@@H](Nc1ncnc2sc3c(c12)CCC3)c1ccccc1 [Compound 20] | 101 to 900 nM |  |  |
| CCN(CC)C/C=C/C(=O)N1CCc2c(sc3ncnc(N[C@H](COC)c4ccccc4)c23)C1 [Compound 230] |  | 60 to 100 nM | 1 to 99 nM |
| COc1ccc(-c2c(-c3ccccc3)oc3ncnc(N[C@H](CO)c4ccccc4)c23)cc1 [Compound 35] | 101 to 900 nM |  | 100 to 300 nM |
| CC(C)NC/C=C/C(=O)N1CCc2c(sc3ncnc(N[C@H](C)c4ccccc4)c23)C1 [Compound 204] | 101 to 900 nM |  | 1 to 99 nM |
| CN(C)C/C=C/C(=O)N1CCc2c(sc3ncnc(N[C@H](CCO)c4ccccc4)c23)C1 [Compound 194] |  | < 59 nM | 1 to 99 nM |
| C[C@@H](Nc1ncnc2sc3c(c12)CCN(C(=O)/C=C/CN(C)CCO)C3)c1ccccc1 [Compound 213] |  | < 59 nM | 1 to 99 nM |
| CCOC(=O)/C=C/C(=O)N1CCc2c(sc3ncnc(N[C@H](CO)c4ccccc4)c23)C1 [Compound 68] |  |  | 1 to 99 nM |
| C[C@@H](Nc1ncnc2sc3c(c12)CCN(C(=O)/C=C/CN=[N+]=[N-])C3)c1ccccc1 [Compound 208] |  | < 59 nM | 1 to 99 nM |

| Compound | IC50 ([1]; range given in mixed units) | IC50 [1] | IC50 [2] |
| --- | --- | --- | --- |
| O=C(O)[C@@H](Nc1ncnc2sc3c(c12)CCCC3)c1ccccc1 [Compound 18] | 101 to 900 nM |  |  |
| OC[C@@H](Nc1ncnc2sc3c(c12)CCCC3)c1ccccc1 [Compound 1, S-2-phenyl-2-(5,6,7,8-tetrahydro-benzo[4,5]thieno[2,3-d]pyrimidin-4-ylamino)-ethanol] | 101 to 900 nM |  | 100 to 300 nM |
| COC[C@@H](Nc1ncnc2sc3c(c12)CCN(C(=O)/C=C/CN(C)C)C3)c1ccccc1 [Compound 229] |  | < 59 nM | 1 to 99 nM |
| CC[C@@H](Nc1ncnc2oc(-c3ccccc3)c(-c3ccccc3)c12)c1ccccc1 [Compound 54] |  |  | 301 to 999 nM |
| C[C@@H](Nc1ncnc2sc3c(c12)CCN(C(=O)/C=C/CNc1ccccc1)C3)c1ccccc1 [Compound 206] | 101 to 900 nM |  | 301 to 999 nM |
| OC[C@@H](Nc1ncnc2oc(-c3ccccc3)c(-c3ccoc3)c12)c1ccccc1 [Compound 41] | 101 to 900 nM |  | 100 to 300 nM |
| OC[C@@H](Nc1ncnc2sc3c(c12)CCC3)c1ccccc1 [Compound 3] |  |  | 301 to 999 nM |
| OC[C@@H](Nc1ncnc2oc(-c3ccccc3)c(Cl)c12)c1ccccc1 [Compound 45] | 101 to 900 nM |  |  |
| C=CC(=O)Nc1cccc(-c2csc3ncnc(N[C@H](CO)c4ccccc4)c23)c1 [Compound 246] |  | < 59 nM | 1 to 99 nM |
| CN(C)C/C=C/C(=O)N1CCc2c(sc3ncnc(N[C@H](COCc4cccnc4)c4ccccc4)c23)C1 [Compound 231] |  | < 59 nM | 1 to 99 nM |
| C[C@@H](Nc1ncnc2sc3c(c12)CCN(C(=O)/C=C/CNN1CCCCC1)C3)c1ccccc1 [Compound 212] |  | < 59 nM | 1 to 99 nM |
| CC(=O)OC[C@@H](Nc1ncnc2oc(-c3ccccc3)c(Br)c12)c1ccccc1 [Compound 44] |  |  | 301 to 999 nM |
| CC#CC(=O)Nc1cccc(-c2c(-c3ccccc3)oc3ncnc(N[C@H](COC)c4ccccc4)c23)c1 [Compound 242] | 101 to 900 nM |  |  |
| COC(=O)[C@@H](Nc1ncnc2oc(-c3ccccc3)c(-c3ccccc3)c12)c1ccccc1 [Compound 46] |  |  | 301 to 999 nM |
| C[C@@H](Nc1ncnc2sc3c(c12)CCN(C(=O)/C=C/CN(C)C)C3)c1ccc(Br)cc1 [Compound 209] |  | < 59 nM | 1 to 99 nM |
| OC[C@@H](Nc1ncnc2oc(-c3ccccc3)c(-c3ccccc3)c12)c1ccccc1 [Compound 31, S-2-(5,6-diphenyl-furo[2,3-d]pyrimidin-4-ylamino)-2-phenyl-ethanol] | 101 to 900 nM |  | 301 to 999 nM |
| CCC[C@@H](Nc1ncnc2sc3c(c12)CCN(C(=O)/C=C/CN(C)C)C3)c1ccccc1 [Compound 217] |  | < 59 nM | 1 to 99 nM |
| CN(C)C/C=C/C(=O)N1CCc2c(sc3ncnc(N[C@H](CO[Si](C)(C)C(C)(C)C)c4ccccc4)c23)C1 [Compound 186] |  | 60 to 100 nM | 301 to 999 nM |
| CCN(CC)C/C=C/C(=O)N1CCc2c(sc3ncnc(N[C@H](CCO)c4ccccc4)c23)C1 [Compound 199] |  | < 59 nM |  |

| Compound | IC50 ([1]; range given in mixed units) | IC50 [1] | IC50 [2] |
| --- | --- | --- | --- |
| C/C=C/C(=O)N1CCc2c(sc3ncnc(N[C@H](COCc4cccc(F)c4)c4ccccc4)c23)C1 [Compound 220] |  | 60 to 100 nM |  |
| OC[C@@H](Nc1ncnc2oc(-c3ccccc3)c(-c3ccco3)c12)c1ccccc1 [Compound 40] | 101 to 900 nM |  | 301 to 999 nM |
| O=C(O)[C@@H](Nc1ncnc2oc(-c3ccccc3)c(-c3ccccc3)c12)c1ccccc1 [Compound 50] |  | < 59 nM |  |
| CN(C)C/C=C/C(=O)N1CCc2c(sc3ncnc(N[C@H](COCc4ccncc4)c4ccccc4)c23)C1 [Compound 224] |  | < 59 nM | 1 to 99 nM |
| CN(C)C/C=C/C(=O)N1CCc2c(sc3ncnc(N[C@H](COCc4ccc(F)cc4)c4ccccc4)c23)C1 [Compound 219] |  | < 59 nM | 1 to 99 nM |
| C=CC(=O)Nc1cccc(-c2cc3c(N[C@H](CO)c4ccccc4)ncnc3s2)c1 [Compound 245] |  | < 59 nM | 100 to 300 nM |
| COc1ccc(-c2oc3ncnc(N[C@H](CO)c4ccccc4)c3c2-c2ccc(OC)cc2)cc1 [Compound 36] |  | 60 to 100 nM |  |
| C=CC(=O)Nc1cccc(-c2coc3ncnc(N[C@H](CO)c4ccccc4)c23)c1 [Compound 244] |  | 60 to 100 nM | 301 to 999 nM |
| CN(C)C/C=C/C(=O)N1CCc2c(sc3ncnc(N[C@H](CO)Cc4ccccc4)c23)C1 [Compound 192] | 101 to 900 nM |  | 1 to 99 nM |
| CC[C@@H](Nc1ncnc2sc3c(c12)CCCC3)c1ccccc1 [Compound 23] | 101 to 900 nM |  | 301 to 999 nM |
| CC(=O)Nc1ccc(-c2c(-c3ccccc3)oc3ncnc(N[C@H](CO)c4ccccc4)c23)cc1 [Compound 37] |  | 60 to 100 nM | 100 to 300 nM |
| CN(C)C/C=C/C(=O)N1CCc2c(sc3ncnc(N[C@H](CCOCc4ccccc4F)c4ccccc4)c23)C1 [Compound 218] |  | < 59 nM | 1 to 99 nM |
| C=CC(=O)Nc1cccc(-c2c(-c3ccccc3)oc3ncnc(N(C)C(COC)c4ccccc4)c23)c1 (stereo not shown) [Compound 247] | 101 to 900 nM |  |  |
| C=CC(=O)Nc1ccc(-c2c(-c3ccccc3)oc3ncnc(N[C@H](CO)c4ccccc4)c23)cc1 [Compound 118, S—N-{4-[4-(2-Hydroxy-1-phenyl-ethylamino)-6-phenyl-furo[2,3-d]pyrimidin-5-yl]-phenyl}-acrylamide] |  | 60 to 100 nM | 301 to 999 nM |
| OC[C@@H](Nc1ncnc2sc(-c3ccccc3)c(Cl)c12)c1ccccc1 [Compound 8] | 101 to 900 nM |  |  |
| O=C(O)[C@@H](Nc1ncnc2oc(-c3ccccc3)c(Br)c12)c1ccccc1 [Compound 53] |  | < 59 nM |  |
| CC(=O)Nc1cccc(-c2c(-c3ccccc3)oc3ncnc(N[C@H](CO)c4ccccc4)c23)c1 [Compound 38] | 101 to 900 nM |  | 100 to 300 nM |
| CC(=O)OC/C=C/C(=O)N1CCc2c(sc3ncnc(N[C@H](C)c4ccccc4)c23)C1 [Compound 214] |  | < 59 nM | 1 to 99 nM |

Reference: patent US8507502B2, “Fused bicyclic and tricyclic pyrimidine compounds as tyrosine kinase inhibitors” (National Health Research Institutes, priority 2008, dated 2013)
